# Read-outs that look alike come from different tables or passages of the source.
# Columns and labels:
# [1] = tested on: experimental tumors and human colon cancer; details: cited from earlier work
# [2] = tested on: equine infectious anemia virus (EIAV); assay: EIAV replication / infection in cells; format: cell-based
# Moloney MuLV = Moloney MuLV replication in vitro; format: cell-based, Moloney murine leukemia virus
# [3] = tested on: HIV-IIIB (HIV-1) replication in H9 cells; assay: HIV replication (RT activity) in acute infection of H9 cells; format: cell-based; details: for RT activity: 7 days postinfection; for RT/Cell: 1 h treatment
# Protocol: HIV-Acute Infection of H9 Cells by HIV and Drug Treatment: One ml of culture supernatant of H9/HIV-IIIB cells (10^6 /ml) was used after centrifugation (200xg, 20 min) and filtration (0.45 μm) for infecting 10^5 H9 cells in the presence or absence of different levels of CPT, m-AMSA or VP-16. Control cells received equivalent volumes of DMSO. The cells were incubated for 1 h at 37° C., pelleted, washed and resuspended in fresh media. […] (1981) J. Virol. 38: 239-48.
# CPT Inhibition of HIV Replication Following Acute Infection of H9 Cells with HIV-IIIB. In order to determine appropriate concentrations of CPT which would permit cell viability and growth while inhibiting viral infection or replication, H9 cells were infected with HIV-IIIB as described above in the absence or presence of different CPT doses. The cells were incubated for 1 h at 37° C., pelleted, washed and resuspended in fresh media. Reverse transcriptase (RT) activity in the culture media was measured seven days after infection.
# Since CPT is an anticancer drug and a known topo I inhibitor, its effects on HIV replication were compared to those of other anticancer drugs which are known to inhibit the related topoisomerase II enzyme.
# HIV = assay: Virus production in chronically HIV-infected cells; format: cell-based; details: non-cytotoxic doses; preliminary evidence
# viral associated topo I = assay: Inhibition of viral associated topo I activity; format: biochemical
# HIV p24 antigen = assay: Western blot analysis of HIV p24 antigen after HIV infection and CPT treatment; format: cell-based, HIV-1; details: 7 days post-infection
# Protocol: A. H9 cells were infected as described in Table 1 and the text. Virus was pelleted from culture supernatants 7 days after infection. The viral pellets were resuspended, lysed, and the proteins separated and transferred as described in the Examples. The blot was analyzed using an HIV p24 specific monoclonal antibody (S. Showalter and M. Zweig, unpublished), and visualized using the Bio-Rad immunogold kit. Lane 1: virus from untreated infected cells; lane 2: virus from cells treated with 0.005 μM CPT for the first 18 h after infection.
# B. Extracts of HIV-infected cells (7 days post-infection) were prepared and analyzed as described in the Examples using an HIV p24 specific monoclonal antibody (S. Showalter and M. Zweig, unpublished). Blots were visualized using the Bio-Rad immunogold kit. Lane 1: untreated infected cells; lane 2: 0.2 μM CPT; lane 3: 0.1 μM CPT; lane 4: 0.05 μM CPT; lane 5: 0.02 μM CPT; lane 6: 0.01 μM CPT; lane 7: 0.005 μM CPT. […]
# The culture media from cells subjected to different treatments was prepared by centrifugation (200xg, 10 min) to remove whole cells and debris, the viral particles were subsequently pelleted (35,000 rpm, 11/2h), and the viral pellet was resuspended in 100 μl of RIPA buffer (50 mM Tris-HC1, pH 7.5; 0.5M NaHPO4, 0.5% NP40, 0.25% Na-deoxycholate, 0.1% SDS). […] Protein concentration was determined using the Bio-Rad protein assay. […]
structure (smiles),measurement,setting,value
"CC[C@@]1(O)C(=O)OCc2c1cc1n(c2=O)Cc2cc3ccccc3nc2-1 [CPT, Camptothecin]",antitumor activity,[1],strong antitumor activity
same,inhibiting the initiation of infection by EIAV,[2]; cell culture,has been demonstrated
same,EIAV replication,[2]; chronically-infected cells,inhibits equine infectious anemia virus (EIAV) replication in chronically-infected cells
same,inhibiting the initiation of infection by Moloney MuLV,Moloney MuLV; cell culture,has been demonstrated
same,Moloney MuLV replication,Moloney MuLV; in vitro,inhibits Moloney MuLV replication in vitro
same,RT activity,"[3]; 0.005 μM CPT, 1 h",429 ± 116 cpm/cell 10^5
same,RT/Cell,"[3]; 0.005 μM CPT, day 7 after infection",5400 cpm/10^5 Cell
same,RT/Cell,"[3]; 0.005 μM CPT, day 8 after infection",34268 cpm/10^5 Cell
same,RT/Cell,"[3]; 0.005 μM CPT, day 9 after infection",102450 cpm/10^5 Cell
same,RT activity,"[3]; 0.01 μM CPT, 1 h",528 ± 40 cpm/cell 10^5
same,RT/Cell,"[3]; 0.01 μM CPT, day 7 after infection",5085 cpm/10^5 Cell
same,RT/Cell,"[3]; 0.01 μM CPT, day 8 after infection",33968 cpm/10^5 Cell
same,RT/Cell,"[3]; 0.01 μM CPT, day 9 after infection",112870 cpm/10^5 Cell
same,RT activity,"[3]; 0.02 μM CPT, 1 h",400 ± 103 cpm/cell 10^5
same,RT/Cell,"[3]; 0.02 μM CPT, day 7 after infection",29.7 cpm/10^5 Cell
same,RT/Cell,"[3]; 0.02 μM CPT, day 8 after infection",325 cpm/10^5 Cell
same,RT/Cell,"[3]; 0.02 μM CPT, day 9 after infection",65761 cpm/10^5 Cell
same,inhibition of HIV production,"[3]; 0.05 μM CPT, 8 and 9 days after infection",essentially complete inhibition of HIV production
same,RT activity,"[3]; 0.05 μM CPT, 1 h",235 ± 62 cpm/cell 10^5
same,RT/Cell,"[3]; 0.05 μM CPT, day 7 after infection",0.03 cpm/10^5 Cell
same,RT/Cell,"[3]; 0.05 μM CPT, day 8 after infection",1.5 cpm/10^5 Cell
same,RT/Cell,"[3]; 0.05 μM CPT, day 9 after infection",9.4 cpm/10^5 Cell
same,RT activity,"[3]; 0.1 μM CPT, 1 h",106 ± 30 cpm/cell 10^5
same,RT activity,"[3]; 0.2 μM CPT, 1 h",139 ± 96 cpm/cell 10^5
same,inhibitory effect on HIV replication,"[3]; 0.005-0.02 μM CPT, 1 h, 7 days after infection",89-93%
same,effect of 1 hour exposure during viral infection on HIV replication,[3]; 1 hour exposure,sufficient to prevent HIV replication
same,inhibition at 0.005 µM,"[3]; Human immunodeficiency virus 1, IIIB, H9, read-out: RT % Inhibition, 0.005 μM CPT, 1 h treatment, day 7 after infection",84%
same,inhibition at 0.005 µM,"[3]; Human immunodeficiency virus 1, IIIB, H9, read-out: RT % Inhibition, 0.005 μM CPT, 1 h treatment, day 8 after infection",74%
same,inhibition at 0.005 µM,"[3]; Human immunodeficiency virus 1, IIIB, H9, read-out: RT % Inhibition, 0.005 μM CPT, 1 h treatment, day 9 after infection",24%
same,inhibition at 0.01 µM,"[3]; Human immunodeficiency virus 1, IIIB, H9, read-out: RT % Inhibition, 0.01 μM CPT, 1 h treatment, day 7 after infection",85%
same,inhibition at 0.01 µM,"[3]; Human immunodeficiency virus 1, IIIB, H9, read-out: RT % Inhibition, 0.01 μM CPT, 1 h treatment, day 8 after infection",75%
same,inhibition at 0.01 µM,"[3]; Human immunodeficiency virus 1, IIIB, H9, read-out: RT % Inhibition, 0.01 μM CPT, 1 h treatment, day 9 after infection",17%
same,inhibition at 0.02 µM,"[3]; Human immunodeficiency virus 1, IIIB, H9, read-out: RT % Inhibition, 0.02 μM CPT, 1 h treatment, day 7 after infection",100%
same,inhibition at 0.02 µM,"[3]; Human immunodeficiency virus 1, IIIB, H9, read-out: RT % Inhibition, 0.02 μM CPT, 1 h treatment, day 8 after infection",98.8%
same,inhibition at 0.02 µM,"[3]; Human immunodeficiency virus 1, IIIB, H9, read-out: RT % Inhibition, 0.02 μM CPT, 1 h treatment, day 9 after infection",52%
same,inhibition at 0.05 µM,"[3]; Human immunodeficiency virus 1, IIIB, H9, read-out: RT % Inhibition, 0.05 μM CPT, 1 h treatment, day 7 after infection",100%
same,inhibition at 0.05 µM,"[3]; Human immunodeficiency virus 1, IIIB, H9, read-out: RT % Inhibition, 0.05 μM CPT, 1 h treatment, day 8 after infection",100%
same,inhibition at 0.05 µM,"[3]; Human immunodeficiency virus 1, IIIB, H9, read-out: RT % Inhibition, 0.05 μM CPT, 1 h treatment, day 9 after infection",100%
same,inhibition at 0.005 µM,"[3]; Human immunodeficiency virus 1, IIIB, H9, read-out: RT activity % Inhibition, 0.005 μM CPT, 1 h, 7 days postinfection",89 ± 4%
same,inhibition at 0.01 µM,"[3]; Human immunodeficiency virus 1, IIIB, H9, read-out: RT activity % Inhibition, 0.01 μM CPT, 1 h, 7 days postinfection",89 ± 4%
same,inhibition at 0.02 µM,"[3]; Human immunodeficiency virus 1, IIIB, H9, read-out: RT activity % Inhibition, 0.02 μM CPT, 1 h, 7 days postinfection",93 ± 2%
same,inhibition at 0.05 µM,"[3]; Human immunodeficiency virus 1, IIIB, H9, read-out: RT activity % Inhibition, 0.05 μM CPT, 1 h, 7 days postinfection",96 ± 1.5%
same,inhibition at 0.1 µM,"[3]; Human immunodeficiency virus 1, IIIB, H9, read-out: RT activity % Inhibition, 0.1 μM CPT, 1 h, 7 days postinfection",98 ± 0.2%
same,inhibition at 0.2 µM,"[3]; Human immunodeficiency virus 1, IIIB, H9, read-out: RT activity % Inhibition, 0.2 μM CPT, 1 h, 7 days postinfection",98 ± 0.8%
same,inhibiting the initiation of infection by HIV,[3]; cell culture,has been demonstrated
same,prevention of HIV replication (RT activity),"[3]; one-hour treatment, 7 days after infection",94-100%
same,virus production in chronically HIV-infected cells,HIV,virus production is suppressed
same,viral associated topo I activity,viral associated topo I,inhibited
same,p24 in culture media,HIV p24 antigen; 0.005 μM CPT for first 18 h (FIG. 1A),could not be detected in the culture media
same,p24 in cell extracts,"HIV p24 antigen; 0.005-0.2 μM CPT, 1 h (FIG. 1B)",could not be detected in extracts

# From patent US5422344A, “Method of treating retroviral infections in mammals” (The United States of America as represented by the …, priority 1990, dated 1995)
